Data on 99 compounds can be found in ChEMBL document CHEMBL3507680, “University of Dundee, Gates Library screen for HepG2 cell viability”.

The structures appear in SMILES notation.

The nature of the series: Human HepG2 cell viability assay in 384 well format. Conditions: HepG2 cells, read-out: Inhibition. The arrangement: dose 125 nL, time 70.5 hour; concentration not given beside the values. In kind it is toxicity, cell-based.
`CC(C)C(=O)N1CCCC2(CCCN2CC2CCCC2)C1` (centres undefined): the cytotoxicity at 70.5 h is -2.41%. As for `CN(C)c1cc(CNC(=O)c2c(F)cccc2F)ccn1`, the cytotoxicity at 70.5 h was 1.27%.

Regarding `Cc1ccc(CN2C[C@@H]3COC[C@H](C(=O)N4CCCCO4)[C@@H]3C2)o1`, the cytotoxicity at 70.5 h is -8.64%. On to `CC(NC(=O)c1cc2n(n1)CCCN(C)C2)c1cn2ncsc2n1` (centres undefined), for which the cytotoxicity at 70.5 h is -7.44%. Regarding `CN(C)CC(=O)N1CCc2sc(C(=O)N3CCN(C)CC3)cc21`, the cytotoxicity at 70.5 h is -2.73%.

For `Cc1cn(-c2ccccc2)nc1NS(=O)(=O)c1cccc(C(=O)O)c1`, the cytotoxicity at 70.5 h was -1.1%.

Take `CCc1noc(CN(CC)Cc2cc3ccc(C)cc3[nH]c2=O)n1`: the cytotoxicity at 70.5 h was 7.76%.

Regarding `O=C(c1cscn1)N1CCC[C@]2(C[C@@H](OCC3CC3)CO2)C1`, the cytotoxicity at 70.5 h is -11%. For `Cn1c(N2CCOCC2)nc2cc(C(=O)N3CC(O)CO3)ccc21` (centres undefined) the value was 32.1%; for `NC(=O)CN1CCN(C(=O)c2cc(Cl)cc3cccnc23)CC1`, 19.4%; for `COC(=O)CC1CCN(C(=O)c2ccc(-n3nnnc3C)cc2)CC1`, -11.6%.

Consider `Cc1nc(C)n(CC2CCCN2Cc2coc(-c3cccs3)n2)n1` (centres undefined), for which the cytotoxicity at 70.5 h was -115%. For `O=C(NCCc1nccs1)c1cn(CCN2CCNCC2)nn1` the value was -2.39%; for `Cc1cc(N(C)C)nc(N2CCCC2c2cccnc2)n1` (centres undefined), -1.47%; for `Cn1ccnc1CN1CCOC[C@H]1c1nc(C(C)(C)C)co1`, -1.75%. The value for `Cc1ncc(CN2Cc3ccccc3O[C@]3(CC[C@H](CO)CC3)C2)cn1` was -2.89%; that for `Cc1csc(CN2C[C@@H]3COC[C@]3(COCC(=O)N(C)C)C2)n1` was -3.08%.

On to `O=c1n(Cc2ccc(F)cc2)nc2ncccn12`, for which the cytotoxicity at 70.5 h was 24.8%. Consider `CN(C)CC(=O)N1CCc2sc(C(=O)N3CCOCC3)cc21`, for which the cytotoxicity at 70.5 h is -0.909%. For `COC(=O)c1cccc2nc([C@H]3CCN(Cc4ccccc4F)C3)oc12` the value was -6.68%; for `CCc1cnc(NCC(C)Oc2cccnc2)nc1` (centres undefined), -5.39%; for `COc1c(CNC2CCCOc3ccccc32)c(C(C)C)nn1C` (centres undefined), -4.69%. The value for `COc1cccc(CN2CCN(Cc3ccc4nonc4c3)CC2=O)c1` was -0.956%. The value for `NC(=O)C1CN(C(=O)Nc2ccccc2N2CCCCCC2)CCO1` (centres undefined) was -17.5%; that for `COC(=O)c1cccc(NC(=O)CN2CCN(S(C)(=O)=O)CC2)c1` was -9.51%; that for `CCCn1nc(-c2nc(C3CC3)no2)ccc1=O` was 5.03%. `COC(=O)CCC(=O)NC1CCCc2cc(OC(F)F)ccc21` (centres undefined): the cytotoxicity at 70.5 h is -13%. For `COc1ccc(C(C)NCCC(N)=O)cc1F` (centres undefined) the value was 1.06%.

Regarding `Cn1cnc2c1C(C(=O)N1CCCC1)N(S(C)(=O)=O)CC2` (centres undefined), the cytotoxicity at 70.5 h is -7.56%. For `c1cc(COC[C@]23COC[C@H]2CN(Cc2ccncc2)C3)ccn1` the value was 9.04%; for `Cc1cnn(CC2CN(Cc3ccc(C(N)=O)cc3)CCO2)c1` (centres undefined), -7.11%; for `COc1cc(Cc2nc3c([nH]2)CC(C)(C)CNC3=O)cc(OC)c1`, 8.47%.

With `COc1ccccc1C1(C(=O)NCCN2CCCCC2)CCOCC1`, the cytotoxicity at 70.5 h was 15.9%.

For `CN(C(=O)c1cccnc1)C1CCCN(CCc2ccccc2)C1` (centres undefined), the cytotoxicity at 70.5 h is -5.02%. The value for `COCCCn1ccc(NC(=O)NCc2cccc(N(C)C)c2)n1` was -5.16%; that for `O=C(NC[C@H]1OC[C@@H](NC2COC2)[C@@H]1O)c1cccs1` was -15.7%. For the compound `COCC1(C(=O)N[C@H]2CN(c3nnc(C)s3)C[C@@H]2C2CC2)CCC1`, the cytotoxicity at 70.5 h turned out to be 7.64%. As to `Cn1nc(C2CC2)cc1C(=O)N1CCC(c2nnsc2S(C)(=O)=O)CC1`, the cytotoxicity at 70.5 h was -4.78%.

`Cc1cnc(C(=O)N2CCCCC2c2[nH]ncc2S(C)(=O)=O)cn1` (centres undefined): the cytotoxicity at 70.5 h was 3.44%. The value for `CC(C)(C)c1nc(CN2CCCC2c2nnc3ccccn23)no1` (centres undefined) was -22.6%; that for `Cc1cc(C)n(CC2CCCN2C(=O)CCc2ccco2)n1` (centres undefined) was -14.5%. For the compound `Cc1nc(Nc2cnccn2)cc(C2CCCN2)n1` (centres undefined), the cytotoxicity at 70.5 h is 19.5%. Take `Cc1ccc(CNC(=O)c2ccc(CNS(C)(=O)=O)o2)cc1F`: the cytotoxicity at 70.5 h turned out to be 17.8%. The value for `O=C(Cn1cnnn1)N1CCCCC1Cn1cccn1` (centres undefined) was 17.9%; that for `CC(=O)N1CCOC(c2ccnc(N(C)C)n2)C1` (centres undefined) was 1.91%.

Consider `c1ccc(C2=NOC3(CCN(Cc4c[nH]c5ccccc45)CC3)C2)cc1`, for which the cytotoxicity at 70.5 h was 11.1%.

Regarding `Cc1ccc(CN2CCc3c(C(=O)N(C)C)n[nH]c3C2)o1`, the cytotoxicity at 70.5 h is -8.34%.

For `O=C(NCC(O)c1cccs1)c1sccc1OC(F)F` (centres undefined), the cytotoxicity at 70.5 h is -3.63%. For `CC(C)NC(=O)c1ccc2c(c1)nc1n2CCN(c2ccccc2)C1` the value was -11.7%; for `O=C(Cc1ccc2c(c1)CCO2)N1CCCCC1Cn1cccn1` (centres undefined), -2.84%.

As to `CN(C)S(=O)(=O)N1C[C@H]2CCC[C@@]2(COCc2cccnc2)C1`, the cytotoxicity at 70.5 h is -6.86%. For `O=C(O)c1ccccc1-c1ccc(Cn2c(=O)cc[nH]c2=O)cc1` the value was -0.721%; for `Cc1nc(C(C)C)sc1CNC(=O)CCCN1CCCCC1`, 30.6%. For `COCCCNC(=O)Nc1ncc(-c2cccc(OC)c2)n1CCOC`, the cytotoxicity at 70.5 h was -17.4%.

`CCn1c(NCC2CCCO2)nc2c(C)nn(C)c2c1=O` (centres undefined): the cytotoxicity at 70.5 h was -7.98%. For `CCOCC(O)CN1CCN(C(=O)c2ccc(C)nc2)CC1` (centres undefined) the value was 0.688%. For `COc1nccc(C(F)(F)F)c1C(=O)O` the value was 0.892%; for `O=C1N(CCc2ccccc2)CCCC1(O)CNCc1ccc(F)cc1` (centres undefined), 6.09%; for `O=C(c1nccc2ccccc12)N1CCCCC1Cn1cccn1` (centres undefined), -5.86%. The value for `CNS(=O)(=O)c1cccc(C(C)NCc2cccc(O)c2)c1` (centres undefined) was -11.9%; that for `CC(C)C(=O)NC1COC2(CCN(C(=O)c3cccnc3)CC2)C1` (centres undefined) was -3.81%; that for `Cc1nn(C)c2cn(CC(=O)N3CCc4ccccc4C3)nc12` was 1.13%. Consider `O=C(c1ccccc1F)N1CCN(c2ccc(-n3cccc3)nn2)CC1`, for which the cytotoxicity at 70.5 h was -8.46%.

As for `CN1CC2(CCN(C(=O)c3ccc4c(=O)n(C)cnc4c3)C2)OC1=O` (centres undefined), the cytotoxicity at 70.5 h is 8.11%. On to `COc1cccc2cc(CNC(C)(C)C(=O)N3CCC(O)CC3)oc12`, for which the cytotoxicity at 70.5 h amounted to 14.1%.

As for `CN(C)C(C(=O)Nc1nccs1)c1c(F)cccc1Cl` (centres undefined), the cytotoxicity at 70.5 h was -0.246%.

For `Cc1nnc(C[C@@H]2COC[C@H]3CN(C(=O)c4ccco4)C[C@@H]23)o1`, the cytotoxicity at 70.5 h is -9.01%.

For `Cn1ccc(CN2CCN(CC3CC3)CC2)cc1=O`, the cytotoxicity at 70.5 h came to 21.6%. As for `O=C(CCC(=O)N1CCC(Oc2ncccc2Br)CC1)c1ccccc1`, the cytotoxicity at 70.5 h was -9.39%. The value for `NC(=O)C1(Cc2ccccc2-c2cncnc2)CCCNC1` (centres undefined) was -10.3%. Consider `COc1ccccc1CC(C)N(C)S(C)(=O)=O` (centres undefined), for which the cytotoxicity at 70.5 h is -6.61%. The value for `CC[C@H](C)Nc1ncc(-c2cccc(NC(=O)CNC)c2)cn1` was -0.898%. The value for `CCCN(CCn1c(=O)oc2ccccc21)CC1CC1` was 1.08%; that for `O=C(NCCc1cccs1)[C@]12COC[C@H]1CN(C1CCOCC1)C2` was -6.34%. For the compound `Cc1c(F)cc(C(=O)O)cc1S(=O)(=O)Nc1ccc2c(c1)OCCO2`, the cytotoxicity at 70.5 h is -2.52%. The value for `Cc1ccc2c(c1)SCC(=O)N2CC(=O)N1CCCC1c1cc(C)on1` (centres undefined) was -1.98%. With `O=C(c1cccc(Cl)c1)N1CCCC(Nc2ccc(F)cc2)C1` (centres undefined), the cytotoxicity at 70.5 h was determined as 2.07%.

Regarding `OCc1cc2ccccc2nc1NCC1(O)CCC1`, the cytotoxicity at 70.5 h was -8.77%. For `CC(=O)N1C[C@H]2CNC[C@@]2(C(=O)NCCNc2ccncc2C)C1` the value was -0.521%. The value for `CC(C)(C)NC(=O)CNC(=O)Nc1cc(-c2ccccc2)ns1` was -14.8%; that for `CCN1CCC2(CCC1=O)CN(c1nccc(N)n1)CCN2C` (centres undefined) was -4.72%; that for `CCCc1nc(C)cc(N2Cc3cnn(CCO)c3C2)n1` was 0.818%. For `COc1cccc(NC(=O)NCC2CCCN(C3CCOCC3)C2)c1` (centres undefined) the value was -8.3%. With `CCc1nc(CNCCn2cc(C)cn2)no1`, the cytotoxicity at 70.5 h is -5.71%. In the case of `O=C(Nc1cccc(N2CCN(CC3CC3)CC2)c1)N1CCCC1`, the cytotoxicity at 70.5 h was 0.629%. The value for `CC(C)(C)c1ncc2c(n1)CN(C(=O)C(C)(C)n1cccc1)C2` was -6.39%; that for `Cc1occc(=O)c1OCC(=O)N1CCN(c2cccc(Cl)c2)CC1` was 2.39%; that for `CC(=O)N1CCCn2nc(CNS(=O)(=O)Cc3ccccc3)cc2C1` was -3.38%. The value for `NC(=O)C1=NC2=NS(=O)(=O)c3ccccc3N2N1Cc1ccc(Cl)cc1` was 1.74%. Turning to `COc1ccc2c(OCC(=O)NC(C)(C)C)ccnc2c1`, the cytotoxicity at 70.5 h was -18.7%. The value for `Cc1cc(NC(=O)CN2C(=O)CC(C)(C)c3ccccc32)no1` was -3%. With `CCN(Cc1ccc2c(c1)OCO2)Cc1nc2c(cnn2C)c(=O)[nH]1`, the cytotoxicity at 70.5 h was found to be 7.27%. The value for `CC(=O)N1CCC(C)(c2cc(C(=O)NCC3CC3)nc(C)n2)CC1` was -1.84%; that for `COc1ccc(CC(=O)N2CCCC(n3nc(C)cc3C)C2)cc1` (centres undefined) was -3.95%; that for `CCc1nc(CN2CCN(C(=O)c3cc(C)no3)CC2)cs1` was -8.13%.

Take `CC(Cn1cccn1)NC(=O)Nc1ccc(F)cc1` (centres undefined): the cytotoxicity at 70.5 h is -4.1%. The value for `CCOc1cc(C(=O)N2CCCC(c3noc(CC)n3)C2)ccn1` (centres undefined) was -2.83%; that for `Cc1cc(CNC(=O)NCc2cccs2)ccc1S(C)(=O)=O` was -8.79%.

On to `CC(C)c1nnc2n1CCN(Cc1csc(CC(=O)N(C)C)n1)C2`, for which the cytotoxicity at 70.5 h worked out at 49.9%.
